Data taken from patent publication EP3810127B1, “USE OF MILBEMYCIN OXIME AGAINST SEA LICE ON FISH” (Pharmaq AS, priority 2018, dated 2019).
Read-outs that look alike come from different tables or passages of the source.

Assays:
sea lice [1] = details: injectable composition, cited from earlier work
salmon lice = details: one hour bath on Day 1, lice counted on Day 3
[2] = tested on: copepodids from salmon lice with reduced sensitivity; experiment: in-vitro 1 hour exposure of copepodids in sea water; details: exposed 1 hour, 96 hours post-exposure
[3] = tested on: adult stages of L. salmonis; experiment: in-vivo bath exposure of Atlantic salmon infested with adult lice; details: one hour bath, female lice counted on Day 3
Experimental: In a separate in-vivo study, Atlantic salmon infested with adult stages of L. salmonis were housed in a 500L tank with sea water at 12°C before drug exposure. Fish were randomly extracted from the holding tank and distributed to the treatment containers (n=14/container). […] Fish were then transferred to observation tanks. Fish were dosed with 500ppb, 250ppb, 125ppb, and 62.5ppb milbemycin oxime. […] On Day 3, fish were terminated and the number of female salmon lice were counted on each of the fish. Milbemycin oxime was 100% efficacious against the sea lice at all dose levels.

[4] = tested on: preadult salmon lice with reduced sensitivity; experiment: in-vitro 1 hour exposure of preadult lice in sea water
[5] = tested on: adult reduced sensitivity lice; experiment: in-vitro 1 hour exposure of adult lice in sea water; set-up: species or system salmon lice; details: exposed 1 hour, 48 hours post-exposure
sea lice [6] = details: cited from earlier work

O=C(NC(=O)c1c(F)cccc1F)Nc1cc(Cl)c(OC(F)(F)C(F)C(F)(F)F)cc1Cl (stereo not drawn) [lufenuron]
efficacy against sea lice (sea lice [1]; 50mg/kg): provided efficacy

milbemycin oxime
efficacious against adult sea lice (salmon lice; 7.8ppb): 100% | Efficacy (salmon lice; 15.6ppb, remaining living lice loosely attached to the caudal fin): 66.6% | efficacious against adult sea lice (salmon lice; 31.3ppb): 100% | efficacious against adult sea lice (salmon lice; 62.5ppb): 100% | state of copepodids ([2]; 12.5ppb): moribund | state of copepodids ([2]; 25ppb): moribund | state of copepodids ([2]; 50ppb): moribund | efficacy against sea lice (sea lice [1]; dose of 0.5mg/kg): not efficacious | efficacious against the sea lice ([3]; 62.5ppb): 100% | efficacious against the sea lice ([3]; 125ppb): 100% | efficacious against the sea lice ([3]; 250ppb): 100% | efficacious against the sea lice ([3]; 500ppb): 100% | state of preadult lice ([4]; 5ppb, exposed 1 hour, 48 hours post-exposure): all were moribund | more effective at killing sea lice than VS55759 ([4]; milbemycin oxime at 5ppb compared with VS55759 at 50ppb (60% morbidity)): at least 10 x | moribund rate ([5]; 2ppb): 82% | state of adult lice ([5]; 10ppb): all dead or moribund | state of adult lice ([5]; 25ppb): all dead or moribund

23(S)-t-butyloxyimino-25(S)-t-butyl milbemycin X [VS55759]
efficacious against sea lice (sea lice [6]; 0.1ppm (100ppb) in a bath solution): efficacious | effective against sea lice (sea lice [6]; 100ppb dose, immersion): 100%

O=C(NC(=O)c1c(F)cccc1F)Nc1cc(Cl)c(OC(F)(F)C(F)F)c(Cl)c1 [hexaflumuron]
efficacy against sea lice (sea lice [1]; 50mg/kg): provided efficacy
